Assay results reported in EPA's ToxValDB 9.5.
Values joined by “and” are separate entries in the source; they are usually repeats but may differ in a detail not shown here. Equal entries are not always repeated.

Legend:
[1] = system: Rattus norvegicus; settings: subchronic; oral; diet; M; Fischer 344; Body Weight Changes: decrease + Blood Chemistry: Alp increase, Bile acid increase, ALT increase, SDH increase + Absolute Organ Weight: Liver…
[2] = system: Rattus norvegicus; settings: short-term, duration: 28 days, oral, gavage, Sprague-Dawley

Cc1cccc(Nc2cc(Cl)nc(SCC(=O)O)n2)c1C [[4-Chloro-6-(2,3-xylidino)-2-pyrimidinylthio]acetic acid]
NOEL [1]: < 0.48 mg/kg-day
LOEL ([2]; F, Clinical chemistry_Alanine aminotransferase): 25 mg/kg-day
LOEL ([2]; F, Clinical chemistry_Albumin): 6.25 mg/kg-day
LOEL ([2]; F, Clinical chemistry_Albumin/globulin ratio): 6.25 mg/kg-day
LOEL ([2]; F, Clinical chemistry_Alkaline phosphatase): 6.25 mg/kg-day
LOEL ([2]; F, Clinical chemistry_Aspartate aminotransferase): 25 mg/kg-day
NOEL ([2]; F, Clinical chemistry_Cholesterol): 25 mg/kg-day
NOEL ([2]; F, Clinical chemistry_Creatinine kinase): 25 mg/kg-day
NOEL ([2]; F, Clinical chemistry_Direct bilirubin): 25 mg/kg-day
NOEL ([2]; F, Clinical chemistry_Free thyroxine): 25 mg/kg-day
LOEL ([2]; F, Clinical chemistry_Globulin): 6.25 mg/kg-day
NOEL ([2]; F, Clinical chemistry_Indirect bilirubin): 25 mg/kg-day
LOEL ([2]; F, Clinical chemistry_Sorbitol dehydrogenase): 6.25 mg/kg-day
NOEL ([2]; F, Clinical chemistry_T bilirubin): 25 mg/kg-day
LOEL ([2]; F, Clinical chemistry_Testosterone): 6.25 mg/kg-day
LOEL ([2]; F, Clinical chemistry_Thyroid stimulating hormone): 6.25 mg/kg-day
NOEL ([2]; F, Clinical chemistry_Total bile acids): 25 mg/kg-day
NOEL ([2]; F, Clinical chemistry_Total bilirubin): 25 mg/kg-day
LOEL ([2]; F, Clinical chemistry_Total protein): 12.5 mg/kg-day
NOEL ([2]; F, Clinical chemistry_Total thyroxine): 25 mg/kg-day
LOEL ([2]; F, Clinical chemistry_Total triiodothyronine): 12.5 mg/kg-day and 6.25 mg/kg-day
NOEL ([2]; F, Clinical chemistry_Triglycerides): 25 mg/kg-day
LOEL ([2]; F, Gene expression_Acox1): 6.25 mg/kg-day
LOEL ([2]; F, Gene expression_Cyp2b1): 6.25 mg/kg-day
LOEL ([2]; F, Gene expression_Cyp2b2): 6.25 mg/kg-day
LOEL ([2]; F, Gene expression_Cyp4a1): 6.25 mg/kg-day
NOEL ([2]; F, Hematology_Erythrocytes): 25 mg/kg-day
NOEL ([2]; F, Hematology_Hematocrit): 25 mg/kg-day
NOEL ([2]; F, Hematology_Hemoglobin): 25 mg/kg-day
NOEL ([2]; F, Hematology_Leukocytes): 25 mg/kg-day
NOEL ([2]; F, Hematology_Mean corpuscular hemoglobin concentration): 25 mg/kg-day
NOEL ([2]; F, Hematology_Mean corpuscular volume): 25 mg/kg-day
NOEL ([2]; F, Hematology_Platelets): 25 mg/kg-day
NOEL ([2]; F, Hematology_Reticulocytes): 25 mg/kg-day
NOEL ([2]; F, Hematology_S. neutrophils): 25 mg/kg-day
NOEL ([2]; F, Nonneoplastic effects_Bone marrow - Hypocellularity): 25 mg/kg-day
NOEL ([2]; F, Nonneoplastic effects_Kidney - Papilla, necrosis): 25 mg/kg-day
NOEL ([2]; F, Nonneoplastic effects_Liver - Hepatocyte, Necrosis): 25 mg/kg-day
LOEL ([2]; F, Nonneoplastic effects_Liver - Hepatocyte, cytoplasmic alteration): 6.25 mg/kg-day
LOEL ([2]; F, Nonneoplastic effects_Liver - Hepatocyte, hypertrophy): 25 mg/kg-day
NOEL ([2]; F, Nonneoplastic effects_Liver - Hepatocyte, vacuolization cytoplasmic): 25 mg/kg-day
NOEL ([2]; F, Nonneoplastic effects_Liver - Necrosis): 25 mg/kg-day
NOEL ([2]; F, Nonneoplastic effects_Nose - Olfactory epithelium, degeneration): 25 mg/kg-day
NOEL ([2]; F, Nonneoplastic effects_Nose - Olfactory epithelium, hyperplasia): 25 mg/kg-day
NOEL ([2]; F, Nonneoplastic effects_Nose - Olfactory epithelium, inflammation, suppurative): 25 mg/kg-day
NOEL ([2]; F, Nonneoplastic effects_Nose - Olfactory epithelium, necrosis): 25 mg/kg-day
NOEL ([2]; F, Nonneoplastic effects_Spleen - Extramedullary hematopoiesis, decreased): 25 mg/kg-day
NOEL ([2]; F, Nonneoplastic effects_Stomach, forestomach - Epithelium, hyperplasia): 25 mg/kg-day
NOEL ([2]; F, Nonneoplastic effects_Thymus - Atrophy): 25 mg/kg-day
NOEL ([2]; F, Organ weights_Heart - Absolute): 25 mg/kg-day
NOEL ([2]; F, Organ weights_Heart - Relative): 25 mg/kg-day
LOEL ([2]; F, Organ weights_Liver - Absolute): 6.25 mg/kg-day
LOEL ([2]; F, Organ weights_Liver - Relative): 6.25 mg/kg-day
NOEL ([2]; F, Organ weights_Lung - Absolute): 25 mg/kg-day
NOEL ([2]; F, Organ weights_Lung - Relative): 25 mg/kg-day
NOEL ([2]; F, Organ weights_R. adrenal gland - Absolute): 25 mg/kg-day
NOEL ([2]; F, Organ weights_R. adrenal gland - Relative): 25 mg/kg-day
LOEL ([2]; F, Organ weights_R. kidney - Absolute): 6.25 mg/kg-day
LOEL ([2]; F, Organ weights_R. kidney - Relative): 6.25 mg/kg-day
NOEL ([2]; F, Organ weights_Spleen - Absolute): 25 mg/kg-day
NOEL ([2]; F, Organ weights_Spleen - Relative): 25 mg/kg-day
NOEL ([2]; F, Organ weights_Thymus - Absolute): 25 mg/kg-day
NOEL ([2]; F, Organ weights_Thymus - Relative): 25 mg/kg-day
NOEL ([2]; F, Organ weights_Thyroid gland - Absolute): 25 mg/kg-day
NOEL ([2]; F, Organ weights_Thyroid gland - Relative): 25 mg/kg-day
LOEL ([2]; F, Reproductive toxicity_Altered estrous cyclicity): 6.25 mg/kg-day
NOEL ([2]; F, Survival rates): 25 mg/kg-day
NOEL ([2]; F, body weight): 25 mg/kg-day
LOEL ([2]; M, Clinical chemistry_Alanine aminotransferase): 6.25 mg/kg-day
LOEL ([2]; M, Clinical chemistry_Albumin): 6.25 mg/kg-day
LOEL ([2]; M, Clinical chemistry_Albumin/globulin ratio): 6.25 mg/kg-day
LOEL ([2]; M, Clinical chemistry_Alkaline phosphatase): 6.25 mg/kg-day
LOEL ([2]; M, Clinical chemistry_Aspartate aminotransferase): 25 mg/kg-day
LOEL ([2]; M, Clinical chemistry_Cholesterol): 6.25 mg/kg-day
NOEL ([2]; M, Clinical chemistry_Creatinine kinase): 25 mg/kg-day
LOEL ([2]; M, Clinical chemistry_Direct bilirubin): 25 mg/kg-day
LOEL ([2]; M, Clinical chemistry_Free thyroxine): 6.25 mg/kg-day
LOEL ([2]; M, Clinical chemistry_Globulin): 6.25 mg/kg-day
NOEL ([2]; M, Clinical chemistry_Indirect bilirubin): 25 mg/kg-day
LOEL ([2]; M, Clinical chemistry_Sorbitol dehydrogenase): 6.25 mg/kg-day
NOEL ([2]; M, Clinical chemistry_T bilirubin): 25 mg/kg-day
LOEL ([2]; M, Clinical chemistry_Testosterone): 25 mg/kg-day
LOEL ([2]; M, Clinical chemistry_Thyroid stimulating hormone): 25 mg/kg-day
LOEL ([2]; M, Clinical chemistry_Total bile acids): 6.25 mg/kg-day
NOEL ([2]; M, Clinical chemistry_Total bilirubin): 25 mg/kg-day
LOEL ([2]; M, Clinical chemistry_Total protein): 6.25 mg/kg-day
LOEL ([2]; M, Clinical chemistry_Total thyroxine): 6.25 mg/kg-day
NOEL ([2]; M, Clinical chemistry_Total triiodothyronine): 25 mg/kg-day
NOEL ([2]; M, Clinical chemistry_Triglycerides): 25 mg/kg-day
LOEL ([2]; M, Gene expression_Acox1): 6.25 mg/kg-day
LOEL ([2]; M, Gene expression_Acyl-CoA oxidase): 6.25 mg/kg-day
LOEL ([2]; M, Gene expression_Altered sperm parameters): 6.25 mg/kg-day
LOEL ([2]; M, Gene expression_Cyp2b1): 6.25 mg/kg-day
LOEL ([2]; M, Gene expression_Cyp2b2): 6.25 mg/kg-day
LOEL ([2]; M, Gene expression_Cyp4a1): 6.25 mg/kg-day
NOEL ([2]; M, Hematology_Erythrocytes): 25 mg/kg-day
NOEL ([2]; M, Hematology_Hematocrit): 25 mg/kg-day
NOEL ([2]; M, Hematology_Hemoglobin): 25 mg/kg-day
NOEL ([2]; M, Hematology_Leukocytes): 25 mg/kg-day
NOEL ([2]; M, Hematology_Mean corpuscular hemoglobin concentration): 25 mg/kg-day
NOEL ([2]; M, Hematology_Mean corpuscular volume): 25 mg/kg-day
NOEL ([2]; M, Hematology_Platelets): 25 mg/kg-day
NOEL ([2]; M, Hematology_Reticulocytes): 25 mg/kg-day
NOEL ([2]; M, Hematology_S. neutrophils): 25 mg/kg-day
NOEL ([2]; M, Nonneoplastic effects_Bone marrow - Hypocellularity): 25 mg/kg-day
NOEL ([2]; M, Nonneoplastic effects_Epididymis - Duct, exfoliated germ cell): 25 mg/kg-day
NOEL ([2]; M, Nonneoplastic effects_Epididymis - Epithelium, apoptosis): 25 mg/kg-day
NOEL ([2]; M, Nonneoplastic effects_Epididymis - Hypospermia): 25 mg/kg-day
NOEL ([2]; M, Nonneoplastic effects_Forestomach - Epithelium, hyperplasia): 25 mg/kg-day
NOEL ([2]; M, Nonneoplastic effects_Forestomach - Inflammation, chronic active): 25 mg/kg-day
NOEL ([2]; M, Nonneoplastic effects_Kidney - Nephropathy, chronic progressive): 25 mg/kg-day
NOEL ([2]; M, Nonneoplastic effects_Kidney - Papilla, necrosis): 25 mg/kg-day
NOEL ([2]; M, Nonneoplastic effects_Liver - Hepatocyte, Necrosis): 25 mg/kg-day
LOEL ([2]; M, Nonneoplastic effects_Liver - Hepatocyte, cytoplasmic alteration): 6.25 mg/kg-day
LOEL ([2]; M, Nonneoplastic effects_Liver - Hepatocyte, hypertrophy): 6.25 mg/kg-day
NOEL ([2]; M, Nonneoplastic effects_Liver - Hepatocyte, vacuolization cytoplasmic): 25 mg/kg-day
NOEL ([2]; M, Nonneoplastic effects_Liver - Necrosis): 25 mg/kg-day
NOEL ([2]; M, Nonneoplastic effects_Lymph nodes - Mandibular, atrophy): 25 mg/kg-day
NOEL ([2]; M, Nonneoplastic effects_Lymph nodes - Mesenteric, atrophy): 25 mg/kg-day
NOEL ([2]; M, Nonneoplastic effects_Nose - Olfactory epithelium, degeneration): 25 mg/kg-day
NOEL ([2]; M, Nonneoplastic effects_Nose - Olfactory epithelium, hyperplasia): 25 mg/kg-day
NOEL ([2]; M, Nonneoplastic effects_Nose - Olfactory epithelium, inflammation, suppurative): 25 mg/kg-day
NOEL ([2]; M, Nonneoplastic effects_Nose - Olfactory epithelium, necrosis): 25 mg/kg-day
NOEL ([2]; M, Nonneoplastic effects_Nose - Respiratory epithelium, hyperplasia): 25 mg/kg-day
NOEL ([2]; M, Nonneoplastic effects_Nose - Respiratory epithelium, inflammation, chronic active): 25 mg/kg-day
NOEL ([2]; M, Nonneoplastic effects_Spleen - Atrophy): 25 mg/kg-day
NOEL ([2]; M, Nonneoplastic effects_Spleen - Extramedullary hematopoiesis, decreased): 25 mg/kg-day
NOEL ([2]; M, Nonneoplastic effects_Spleen - Extramedullary hematopoiesis, increased): 25 mg/kg-day
NOEL ([2]; M, Nonneoplastic effects_Stomach, forestomach - Epithelium, hyperplasia): 25 mg/kg-day
NOEL ([2]; M, Nonneoplastic effects_Testes - Germinal epithelium, degeneration): 25 mg/kg-day
NOEL ([2]; M, Nonneoplastic effects_Testes - Interstitial cell, atrophy): 25 mg/kg-day
NOEL ([2]; M, Nonneoplastic effects_Testes - Seminiferous tubule, spermatid retention): 25 mg/kg-day
NOEL ([2]; M, Nonneoplastic effects_Thymus - Atrophy): 25 mg/kg-day
NOEL ([2]; M, Nonneoplastic effects_Thymus - Lymphocyte, apoptosis): 25 mg/kg-day
NOEL ([2]; M, Nonneoplastic effects_Thyroid gland - Follicular cell hypertrophy): 25 mg/kg-day
LOEL ([2]; M, Organ weights_Heart - Absolute): 25 mg/kg-day
NOEL ([2]; M, Organ weights_Heart - Relative): 25 mg/kg-day
LOEL ([2]; M, Organ weights_Liver - Absolute): 6.25 mg/kg-day
LOEL ([2]; M, Organ weights_Liver - Relative): 6.25 mg/kg-day
NOEL ([2]; M, Organ weights_Lung - Absolute): 25 mg/kg-day
NOEL ([2]; M, Organ weights_Lung - Relative): 25 mg/kg-day
NOEL ([2]; M, Organ weights_R. adrenal gland - Absolute): 25 mg/kg-day
NOEL ([2]; M, Organ weights_R. adrenal gland - Relative): 25 mg/kg-day
LOEL ([2]; M, Organ weights_R. kidney - Absolute): 6.25 mg/kg-day
LOEL ([2]; M, Organ weights_R. kidney - Relative): 6.25 mg/kg-day
NOEL ([2]; M, Organ weights_R. testis - Absolute): 25 mg/kg-day
LOEL ([2]; M, Organ weights_Spleen - Absolute): 6.25 mg/kg-day
NOEL ([2]; M, Organ weights_Spleen - Relative): 25 mg/kg-day
NOEL ([2]; M, Organ weights_Thymus - Absolute): 25 mg/kg-day
NOEL ([2]; M, Organ weights_Thymus - Relative): 25 mg/kg-day
NOEL ([2]; M, Organ weights_Thyroid gland - Absolute): 25 mg/kg-day
LOEL ([2]; M, Reproductive toxicity_Altered sperm parameters): 6.25 mg/kg-day
NOEL ([2]; M, Survival rates): 25 mg/kg-day
